Laboratory results taken from ChEMBL document CHEMBL1147310, “Anti-inflammatory compounds from Sideritis javalambrensis n-hexane extract” (1989).
Active and inactive are the calls of the source. The rule behind the calls is not given here.

Key:
Mus musculus [1] = assay: Antiinflammatory activity in albino mouse assessed as inhibition of carrageenan-induced paw edema at 75 mg/kg, ip administered 1 hr before carrageenan challenge measured after 3 to 7 hrs; type: functional; details: route intraperitoneal
Mus musculus [2] = assay: Antiinflammatory activity in albino mouse assessed as inhibition of carrageenan-induced paw edema at 80 mg/kg, ip administered 1 hr before carrageenan challenge measured after 3 hrs; type: functional; details: route intraperitoneal
Mus musculus [3] = assay: Antiinflammatory activity in po dosed albino mouse assessed as inhibition of carrageenan-induced paw edema administered 1 hr before carrageenan challenge measured; type: functional, organism-based
Mus musculus [4] = assay: Antiinflammatory activity in albino mouse assessed as inhibition of carrageenan-induced paw edema at 250 mg/kg, po administered 1 hr before carrageenan challenge measured after 3 hrs; type: functional
Mus musculus [5] = assay: Antiinflammatory activity in albino mouse assessed as inhibition of carrageenan-induced paw edema at 125 mg/kg, po administered 1 hr before carrageenan challenge measured after 3 to 7 hrs; type: functional, organism-based; parameters: dose 125 mg/kg
Mus musculus [6] = assay: Antiinflammatory activity in albino mouse assessed as inhibition of carrageenan-induced paw edema at 100 mg/kg, po administered 1 hr before carrageenan challenge measured after 3 hrs; type: functional

| SMILES | inhibition in vivo at 75 mg/kg (Mus musculus [1]) [%] | inhibition in vivo at 80 mg/kg (Mus musculus [2]) [%] | Activity (Mus musculus [3]) | inhibition in vivo at 250 mg/kg (Mus musculus [4]) [%] | Activity (Mus musculus [5]) | inhibition in vivo at 100 mg/kg (Mus musculus [6]) [%] |
| --- | --- | --- | --- | --- | --- | --- |
| C=C[C@@]1(CO)CC[C@H]2[C@]3(C)CCCC(C)(C)[C@H]3CC[C@]2(C)O1 | 60.1 | 63.5 | Dose-dependent effect | 55.8 | Active |  |
| CCCCC1C(=O)N(c2ccccc2)N(c2ccccc2)C1=O [PHENYLBUTAZONE] |  |  |  |  |  | 47.7 |
